Assay results taken from patent US10696692B2, “Amido-benzyl sulfone and sulfoxide derivates” (Forma TM, LLC, priority 2012, dated 2020).
Read-outs that look alike come from different tables or passages of the source.

Key:
[1] = target: NAMPT (Homo sapiens (Human), UniProt P43490); assay: Assay 1: Biochemical Inhibition Assay (NAMPT enzymatic reaction, NMN quantified by mass spectrometry); conditions: read-out: Biochemical (IC50);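 note: recombinant His-tagged human NAMPT preincubated with compound 15 min, then reacted 30 min at rt with 1 µM NAM, 100 µM PRPP, 2.5 mM ATP, NMN product read by RapidFire MS, normalized to L-Cystathionine internal standard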
[2] = tested on: A2780 cells; assay: Assay 2: In-Vitro Cell Proliferation Assay (A2780 cells, SRB readout, 72 hours); type: cell-based; conditions: A2780 cells, 72 hours, SRB, read-out: Cell Proliferation (IC50);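 note: viable cells counted via sulforhodamine B staining, absorbance at 570 nm, after 72 h exposure at 37 °C, DMSO 0.1% as control, media-only background subtracted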

Sequence of NAMPT (P43490 whole entry): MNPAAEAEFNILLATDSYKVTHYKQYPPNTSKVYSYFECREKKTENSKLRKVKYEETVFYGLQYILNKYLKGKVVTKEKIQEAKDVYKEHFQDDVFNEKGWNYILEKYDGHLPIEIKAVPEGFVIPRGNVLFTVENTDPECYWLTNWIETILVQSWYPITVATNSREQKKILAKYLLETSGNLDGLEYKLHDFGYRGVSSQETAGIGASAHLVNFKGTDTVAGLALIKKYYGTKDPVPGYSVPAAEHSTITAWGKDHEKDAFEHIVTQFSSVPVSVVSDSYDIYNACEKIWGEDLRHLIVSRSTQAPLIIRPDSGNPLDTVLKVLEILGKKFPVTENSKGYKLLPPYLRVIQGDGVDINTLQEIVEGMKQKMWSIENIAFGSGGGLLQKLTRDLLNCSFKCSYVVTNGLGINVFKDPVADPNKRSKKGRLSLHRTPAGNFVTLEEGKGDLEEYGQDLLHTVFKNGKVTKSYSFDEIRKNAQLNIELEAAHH

IC50 [1] [nM] | IC50 ([2]; Homo sapiens, A2780, 72 h) [nM] | IC50 [2] [nM] | SMILES
14.1 | 14.4 | – | CN(C)C(=O)C1CN(S(=O)(=O)c2ccc(CNC(=O)c3ccc4nccn4c3)cc2)C1 [Example 244, N-[[4-[3-(dimethylcarbamoyl)azetidin-1-yl]sulfonylphenyl]methyl] imidazo[1,2-a]pyridine-6-carboxamide]
52.3 | 274 | – | O=C(NCc1ccc(S(=O)(=O)N2CC(O)C2)cc1)c1ccc2nccn2c1 [Example 245, N-[[4-(3-hydroxyazetidin-1-yl)sulfonylphenyl]methyl] imidazo[1,2-a]pyridine-6-carboxamide]
7.03 | 27.3 | – | CN1CCN(C(=O)C2CN(S(=O)(=O)c3ccc(CNC(=O)c4ccc5nccn5c4)cc3)C2)CC1 [Example 246, N-[[4-[3-(4-methylpiperazine-1-carbonyl)azetidin-1-yl]sulfonylphenyl]methyl] imidazo[1,2-a]pyridine-6-carboxamide]
19.4 | – | 5.58 | O=C(NCc1ccc(S(=O)(=O)C2CCN(C3COC3)CC2)cc1)c1ccc2nccn2c1 [Example 248, N-[[4-[[1-(oxetan-3-yl)-4-piperidyl]sulfonyl]phenyl]methyl]imidazo[1,2-a] pyridine-6-carboxamide]
4.13 | – | 121 | O=C(NCc1ccc(S(=O)(=O)C2CCN(C3COC3)CC2)cc1)c1cnc2nccn2c1 [Example 251, N-[[4-[[1-(oxetan-3-yl)-4-piperidyl]sulfonyl]phenyl]methyl]imidazo[1,2-a] pyrimidine-6-carboxamide]
4.27 | – | 1.48 | O=C(NCc1ccc(S(=O)(=O)C2CCN(C3COC3)CC2)cc1)c1cc2ccncc2s1 [Example 252, N-[[4-[[1-(oxetan-3-yl)-4-piperidyl]sulfonyl]phenyl]methyl]thieno[2,3-c]pyridine-2-carboxamide]
27.4 | 31.3 | – | O=C(NCc1ccc(S(=O)(=O)N2CC3(CCCNC3)C2)cc1)c1ccc2nccn2c1 [Example 253, N-[[4-(2,8-diazaspiro[3,5]nonan-2-ylsulfonyl)phenyl]methyl] imidazo[1,2-a]pyridine-6-carboxamide]
57 | 36.2 | – | O=C(NCc1ccc(S(=O)(=O)N2CCC3(CCCN3)C2)cc1)c1ccc2nccn2c1 (stereo not shown) [Example 255, N-[[4-(1,7-diazaspiro[4.4]nonan-7-sulfonyl)phenyl]methyl] imidazo[1,2-a]pyridine-6-carboxamide]
53.7 | 66.9 | – | O=C(NCc1ccc(S(=O)(=O)N2CCC3(CCNCC3)C2)cc1)c1ccc2nccn2c1 [Example 256, N-[[4-(2,8-diazaspiro[4.5]decan-2-ylsulfonyl)phenyl]methyl] imidazo[1,2-a]pyridine-6-carboxamide]
46.8 | – | 26.5 | O=C(NCc1ccc(S(=O)(=O)N2CCC3(CCCN3)C2)cc1)c1ccc2nccn2c1 (stereo not shown) [Example 257, N-[[4-(1,7-diazaspiro[4.4]nonan-7-ylsulfonyl)phenyl]methyl] imidazo[1,2-a]pyridine-6-carboxamide]
37.8 | 70 | – | CC(=O)N1CC2(C1)CN(S(=O)(=O)c1ccc(CNC(=O)c3ccc4nccn4c3)cc1)C2 [Example 259, N-[[4-[(6-acetyl-2,6-diazaspiro[3.3]heptan-2-yl)sulfonyl]phenyl]methyl] imidazo[1,2-a]pyridine-6-carboxamide]
64.9 | 106 | – | O=C(NCc1ccc(S(=O)(=O)N2CCC3(CCNC3)C2)cc1)c1ccc2nccn2c1 (stereo not shown) [Example 262, N-[[4-(2,7-diazaspiro[4.4]nonan-2-ylsulfonyl)phenyl]methyl] imidazo[1,2-a]pyridine-6-carboxamide]
18.2 | 23.4 | – | O=C(NCc1ccc(S(=O)(=O)N2CC3(CCOCC3)C2)cc1)c1cc2ccncc2o1 [Example 263, N-[[4-(7-oxa-2-azaspiro[3.5]nonan-2-ylsulfonyl)phenyl]methyl]furo [2,3-c]pyridine-2-carboxamide]
33.1 | 18.5 | – | O=C(NCc1ccc(S(=O)(=O)C2CCCOC2)cc1)c1cc2cnccc2[nH]1 (stereo not shown) [Example 266, N-[(4-tetrahydropyran-3-ylsulfonylphenyl)methyl]-1H-pyrrolo[3,2-c]pyridine-2-carboxamide]
219 | 176 | – | O=C(NCc1ccc(S(=O)(=O)C2CCCOC2)cc1)c1cnc2[nH]ncc2c1 (stereo not shown) [Example 267, N-[(4-tetrahydropyran-3-ylsulfonylphenyl)methyl]-1H-pyrazolo[3,4-b]pyridine-5-carboxamide]
113 | 45.1 | – | O=C(NCc1ccc(S(=O)(=O)N2CC3(CCOCC3)C2)cc1)c1cnc2[nH]ncc2c1 [Example 269, N-[[4-(7-oxa-2-azaspiro[3.5]nonan-2-ylsulfonyl)phenyl]methyl]-1H-pyrazolo[3,4-b]pyridine-5-carboxamide]

IC50 [1] [nM] | IC50 ([2]; Homo sapiens, A2780, 72 h) [nM] | IC50 [2] [nM] | SMILES
8.77 | 6.07 | – | O=C(NCc1ccc(S(=O)(=O)N2CC3(C2)CC(F)(F)C3)cc1)c1ccc2nccn2c1 [Example 270, N-[[4-[(6,6-difluoro-2-azaspiro[3.3]heptan-2-yl)sulfonyl]phenyl]methyl] imidazo[1,2-a]pyridine-6-carboxamide]
27.5 | 12.1 | – | CN1CCC2(CC1)CN(S(=O)(=O)c1ccc(CNC(=O)c3ccc4nccn4c3)cc1)C2 [Example 271, N-[[4-[(7-methyl-2,7-diazaspiro[3.5]nonan-2-yl)sulfonyl]phenyl]methyl] imidazo[1,2-a]pyridine-6-carboxamide]
33.6 | 10 | – | CN1CCOC2(C1)CN(S(=O)(=O)c1ccc(CNC(=O)c3ccc4nccn4c3)cc1)C2 [Example 272, N-[[4-[(8-methyl-5-oxa-2,8-diazaspiro[3.5]nonan-2-yl)sulfonyl]phenyl]methyl] imidazo[1,2-a]pyridine-6-carboxamide]
25.4 | 10.4 | – | CN1CCCC12CN(S(=O)(=O)c1ccc(CNC(=O)c3ccc4nccn4c3)cc1)C2 [Example 273, N-[[4-[(5-methyl-2,5-diazaspiro[3.4]octan-2-yl)sulfonyl)phenyl]methyl] imidazo[1,2-a]pyridine-6-carboxamide]
19 | 5.93 | – | O=C(NCc1ccc(S(=O)(=O)N2CC3(CCCO3)C2)cc1)c1ccc2nccn2c1 [Example 274, N-[(4-(5-oxa-2-azaspiro[3.4]octan-2-ylsulfonyl)phenyl]methyl] imidazo[1,2-a]pyridine-6-carboxamide]
30.4 | 50.3 | – | O=C(NCc1ccc(S(=O)(=O)C2CCCOC2)cc1)c1cc2ccncc2o1 (stereo not shown) [Example 275, N-[(4-tetrahydropyran-3-ylsulfonylphenyl)methyl]furo [2,3-c]pyridine-2-carboxamide]
32.9 | 19.9 | – | O=C(NCc1ccc(S(=O)(=O)C2CCCOC2)cc1)c1ccc2nccn2c1 (stereo not shown) [Example 276, N-[(4-tetrahydropyran-3-ylsulfonylphenyl)methyl] imidazo[1,2-a]pyridine-6-carboxamide]
2000 | 2000 | – | Nc1ncc2c(n1)CN(C(=O)NCc1ccc(S(=O)(=O)C3CCOCC3)cc1)C2 [Example 277, 2-amino-N-[(4-tetrahydropyran-4-ylsulfonylphenyl)methyl]-5,7-dihydropyrrolo[3,4-d]pyrimidine-6-carboxamide]
95.6 | 378 | – | O=C(NCc1ccc(S(=O)(=O)N2CC(F)(F)C2)cc1)c1cnc2[nH]ncc2c1 [Example 281, N-[[4-(3,3-difluoroazetidin-1-yl)sulfonylphenyl]methyl]-1H-pyrazolo[3,4-b]pyridine-5-carboxamide]
101 | 233 | – | O=C(NCc1ccc(S(=O)(=O)N2CCC3(CCNC3=O)C2)cc1)c1cnc2[nH]ncc2c1 (stereo not shown) [Example 282, N-[[4-[(1-oxo-2,7-diazaspiro[4.4]nonan-7-yl)sulfonyl)phenyl]methyl]-1H-pyrazolo[3,4-b]pyridine-5-carboxamide]
199 | 129 | – | CN1CCC2(C1)CN(S(=O)(=O)c1ccc(CNC(=O)c3cnc4[nH]ncc4c3)cc1)C2 [Example 283, N-[[4-[(7-methyl-2,7-diazaspiro[3.4]octan-2-yl)sulfonyl]phenyl]methyl]-1H-pyrazolo[3,4-b]pyridine-5-carboxamide]
70.9 | 42.9 | – | O=C(NCc1ccc(S(=O)(=O)N2CCC3(CCCO3)C2)cc1)c1cnc2[nH]ncc2c1 (stereo not shown) [Example 284, N-[[4-(1-oxa-7-azaspiro[4.4]nonan-7-ylsulfonyl)phenyl]methyl]-1H-pyrazolo[3,4-b]pyridine-5-carboxamide]
206 | 2000 | – | O=C(NCc1ccc(S(=O)(=O)N2CCC23COC3)cc1)c1cnc2[nH]ncc2c1 [Example 285, N-[[4-(6-oxa-1-azaspiro[3.3]heptan-1-ylsulfonyl)phenyl]methyl]-1H-pyrazolo[3,4-b]pyridine-5-carboxamide]
14.5 | 0.488 | – | C[C@@H]1CN(S(=O)(=O)c2ccc(CNC(=O)c3cc4ccncc4o3)cc2)C[C@H](C)N1C1COC1 [Example 286, N-[[4-[(3S,5R)-3,5-dimethyl-4-(oxetan-3-yl)piperazin-1-yl]sulfonylphenyl]methyl]furo [2,3-c]pyridine-2-carboxamide]
9.84 | 10.1 | – | O=C(NCc1ccc(S(=O)(=O)N2CC3CCC(F)(F)C3C2)cc1)c1cc2ccncc2o1 (stereo not shown) [Example 296, N-[[4-[(4,4-difluoro-1,3,3a,5,6,6a-hexahydrocyclopenta[c]pyrrol-2-yl)sulfonyl]phenyl]methyl]furo [2,3-c]pyridine-2-carboxamide]
16.6 | 51.2 | – | O=C(NCc1ccc(S(=O)(=O)N2CC3CC(F)(F)CC3C2)cc1)c1cc2ccncc2o1 (stereo not shown) [Example 297, N-[[4-[(5,5-difluoro-1,3,3a,4,6,6a-hexahydrocyclopenta[c]pyrrol-2-yl)sulfonyl]phenyl]methyl]furo [2,3-c]pyridine-2-carboxamide]
